Results taken from PMC4901077, “Development and Identification of a Novel Anti-HIV-1 Peptide Derived by Modification of the N-Terminal Domain of HIV-1 Integrase” (Frontiers in Microbiology, 2016).
Like-named read-outs stand apart in the source and are kept apart here. Marks after values point to notes of the source that are not given here. Peptide text beside a SMILES is read from it.

How the values were obtained:
[1] = target: T1, HIV-1 IN-IN subunit exchange (Human immunodeficiency virus type 1 group M subtype B, UniProt P04585); assay: HTRF-based IN subunit exchange assay (IN-IN dimerization); assay type: binding; details: for IC50: concentration required to inhibit the HIV-1 IN-IN subunit exchange by 50%, HTRF, His- and FLAG-tagged IN; for IN-IN subunit exchange, percentage of control: measured in the presence of 100 μM concentration
T1 construct: Full-length IN and LEDGF proteins were expressed in E. coli BL21(DE3); made in house; host or cells: E. coli BL21(DE3)
Experimental: (§1) Full-length IN and LEDGF proteins were expressed in E. coli BL21(DE3) and were purified as described (Kessl et al., [2012]; Esposito et al., [2015]; Tintori et al., [2015]). His- and FLAG-tagged INs, were mixed in 25 mM Tris (pH 7.4) buffer containing 150 mM NaCl, 2 mM MgCl2, 0.1% Nonidet P-40, 1 mg/ml BSA. Test compounds were then added to the mixture. A mixture of anti-His6-XL665 and anti-FLAG-EuCryptate antibodies were then added to the reaction and, after an incubation, the plate are read and the HTRF signal is calculated from the 665/620 nm ratio.
(§2) In this assay two IN preparation are used: a first His-tagged IN preparation, and a second Flag-tagged IN preparation. In both preparations the purified IN is at equilibrium as a dimer; such dimers go through monomers exchange. […] The formation of this “hybrid” dimer can be monitored in the HTRF-based assay as described (Esposito et al., [2015]; Tintori et al., [2015]). When the assay is performed in the presence of a compound inhibiting dimerization, the HTRF signal decreases as the concentration of compound increases, whereas in the presence of a compound promoting IN multimerization (association of dimers) the HTRF signal increases as the concentration of the compound increases.

HIV-1 IN multimerization = target: T2, HIV-1 IN multimerization (Human immunodeficiency virus type 1 group M subtype B, UniProt P04585); assay: HTRF-based IN multimerization assay; assay type: binding; details: for EC50: concentration stimulating the Multimerization Increase by 50%, HTRF, read-out: IN-multim MI50; for IN multimerization signal, % of control at 100 µM: measured in the presence of 100 μM concentration, read-out: IN-multim, percentage of control
T2 construct: Full-length IN and LEDGF proteins were expressed in E. coli BL21(DE3); made in house; host or cells: E. coli BL21(DE3)
Experimental: as §1, §2

[2] = target: T3, Full-length recombinant HIV-1 integrase (Human immunodeficiency virus type 1 group M subtype B, UniProt P04585); assay: HIV-1 IN activity inhibition assay (Xpressbio HIV-1 IN Assay kit, 3'-processing/strand transfer); assay type: biochemical
T3 construct: Full-length recombinant HIV-1 integrase protein was then loaded onto this oligo substrate; purchased Xpressbio Life Science Products (Express Biotech International)
Experimental: Express Biotech International Company performed this assay using its HIV-1 IN Assay kit (Xpressbio Life Science Products, USA. www.xpressbio.com). Briefly, Streptavidin coated 96-well plates were coated with a double-stranded HIV-1 LTR U5 donor substrate (DS) oligonucleotide containing an end-labeled biotin. Full-length recombinant HIV-1 integrase protein was then loaded onto this oligo substrate. Compounds were added to the reaction and then a different double-stranded target substrate (TS) oligo containing 3′-end modifications was added to the plate. The sequence of DS DNA and TS DNA substrates used in this assay were
respectively (Hazuda et al., [1994] and Engelman et al., [1993]). The HIV-1 IN cleaves the terminal two bases from the exposed 3′-end of the HIV-1 LTR DS and then catalyzes a strand-transfer reaction to integrate the DS into the TS. The products of the reaction were detected colorimetrically using an HRP-labeled antibody directed against the TS 3′-end modification. Percent inhibition in the IN assay was calculated and IC50 values were determined.

[3] = Table 1, colorimetric HRP read-out, ±SD, read-out: IN inhibition IC50(μM) ±SD
[4] = Table 2, colorimetric HRP read-out, read-out: IN inhibition IC50

CCCC(C(=O)O)c1c(C)nc2ccc(Cl)cc2c1-c1ccccc1 (stereo not drawn) [LEDGIN-6, reference compound]
IC50 [1]: > 100 µM | IN-IN subunit exchange, percentage of control [1]: >100 (100%) | EC50 (HIV-1 IN multimerization): 10 ± 1 µM

CC[C@H](C)[C@H](NC(=O)[C@H](CCC(=O)O)NC(=O)[C@H](CCCCN)NC(C)=O)C(=O)N[C@H](C(=O)N[C@@H](C)C(=O)N[C@@H](CO)C(=O)N[C@@H](CS)C(=O)N[C@@H](CC(=O)O)C(=O)N[C@@H](CCCCN)C(=O)N[C@@H](CS)C(N)=O)C(C)C [Peptide 12] (Ac-KEIVASCDKC-NH2)
IC50 [2, 3]: 477 ± 23 µM

Ac-DFNLPPVVAK-NH2 [Peptide 9]
IC50 [2, 3]: 213 ± 12 µM

Ac-GIDKAQDEHE-NH2 [Peptide 2]
IC50 [2, 3]: 162 ± 9 µM

Ac-VFAKEIVAH-NH2 [Peptide 20]
IC50 [2, 4]: 375 ± 19 µM

Ac-VVAAEIVAH-NH2 [Peptide 24]
IC50 [2, 4]: 20.8 ± 1.3 µM | IC50 [1]: 32 ± 3 µM | EC50 (HIV-1 IN multimerization): > 100 µM | IN multimerization signal, % of control at 100 µM (HIV-1 IN multimerization): 100%

Ac-VVAKAIVAH-NH2 [Peptide 25]
IC50 [2, 4]: 13 ± 1 µM | IC50 [1]: > 100 µM | IN-IN subunit exchange, percentage of control [1]: >100 (100%) | EC50 (HIV-1 IN multimerization): 4.8 ± 0.4 µM

Ac-VVAKEIFAH-NH2 [Peptide 21]
IC50 [2, 4]: 504 ± 22 µM

Ac-VVAKEIVAH-NH2 [Peptide 18]
IC50 [2, 3]: 4.5 ± 0.9 µM | IC50 [1]: > 100 µM | IN-IN subunit exchange, percentage of control [1]: >100 (100%)^b | EC50 (HIV-1 IN multimerization): > 100 µM | IN multimerization signal, % of control at 100 µM (HIV-1 IN multimerization): 100%
